What was measured:
rat NR1/NR2B receptor [1] = molecular target: T1, rat NR1/NR2B receptor (Rattus norvegicus (Rat), UniProt P35439+Q00960); assay: RRNR2BB: inhibition of specific binding to the rat NR1/NR2B receptor; details: [3H]-Ifenprodil binding, rat brain membranes, Hill-plot 2-parameter-model
Description: RRNR2BB—Inhibition of Specific Binding to the Rat NR1/NR2B Receptor
(§1) Male Wistar rats (180 to 200 g) were killed by suffocation in a CO2 chamber for two minutes. Whole brains without cerebellum were removed and dissected on ice, placed into closed vials and stored at −70° C.
Membrane fractions were prepared and tested using standard techniques. At the time of the assay, 1 g of the brains were placed into 25 ml of 50 mM Tris/10 mM EDTA buffer, pH=7.1, (25 vol. per g of original tissue) and was homogenized for 30 sec at 20000 U/min with an Ultraturrax T25 (Jahnke & Kunkel, IKA-Labortechnik, Staufen, Germany). The homogenate was centrifuged at 4° C. for 10 min at 48000 g (OPTIMA L-70, Beckman, Palo Alto, Calif. 94304, USA). The supernatant was discarded and the pellet was homogenized on ice for 30 sec at 20000 U/min with an Ultraturrax and again centrifuged at 48000 g for 30 minutes at 4° C. The resultant pellet was resuspended in 25 ml of 50 mM Tris/10 mM EDTA buffer, homogenized for 30 sec with an Ultraturrax, aliquoted, frozen at −70° C. and stored until use
(§2) After thawing on the day of the assay, a 5 ml membrane aliquote was centrifuged at 48000 g for 30 min at 4° C. The pellet was resuspended in 5 ml of 5 mM Tris/1 mM EDTA buffer, pH=7.4, homogenized for 30 sec at 20000 U/min with an Ultraturrax and centrifuged at 48000 g for 30 min at 4° C. This step was repeated twice. The final pellet was homogenized in 5 ml of 5 mM Tris/mM EDTA buffer at 4° C. with an Ultraturrax and used for the Ifenprodil-binding assay.
Nonspecific binding was estimated in the presence of 10 M CP101.606. The samples were incubated for 60 min. at 4° C.
(§3) Binding was terminated by filtration of the incubated membrane preparations using Filtermat B (Pharmacia, Uppsala Sweden) and a Micro Cell Harvester (Skatron, Lier, Norway). The Filtermat B had been presoaked with 1% polyethylenimine and carefully washed with 50 nM Tris/HCl-buffer pH=7.7 after the filtration to separate free and bound radioactivity.
For pipetting of the incubation mixture the robot Biomek2000 (Fa. Beckman) was used.
The IC50 values in the tables below were determined using the Hill-plot, 2-parameter-model.

hERG-receptor = hERG-receptor (Homo sapiens (Human), UniProt Q12809); assay: HERGBD: inhibition of specific 3H-Dofetilide binding to the hERG-receptor; details: HEK cell membranes with human ERG, Hill-plot 2-parameter-model
Description: Inhibition of Specific Binding to the hERG-Receptor (HERGBD)
A HEK cell line with stable transfected human ERG receptor was used for the assay. The cells were grown adherently and maintained in DULBECCOS' MEM medium with 10% FBS, 1% non-essential amino acids, 1% Penicillin/Streptomycin and 400 μg/ml G418 (Calbiochem).
For binding assays and membrane preparations the cell culture medium was removed, cells were washed with PBS. Crude membranes for radioligand binding experiments were prepared by scraping the cells off the dishes in ice cold 20 mM HEPES/0.1 mM KCl/pH 7.2. The cell suspension was homogenized on ice (Ultra turrax, 3×20 sec.) and the homogenate was spun for 10 min (1° C., 1000 g, OPTIMA, SW28, 2800 U/min). The supernatant was than centrifuged for 40 min at 100000 g (1° C., OPTIMA, SW28, 23000 U/min). The membrane pellet was resuspended in 20 mM HEPES/0.1 mM KCl/pH 7.2, frozen and stored at −80° C.
After thawing on the day of the assay, the membrane suspension was diluted further with 20 mM HEPES/0.1 mM KCl/pH 7.2.
The incubation mixture of 200 μl contained 1.5 nmol/l 3H-Dofetilide, optimized amount of membrane preparation, 20 mM HEPES/0.1 mM KCl/(pH 7.2) and inhibitor in 1% DMSO. Nonspecific binding was estimated in the presence of […] Dofetilide. The samples were incubated for 90 min. at RT.
as §3, with “0.05 M” for “50 nM”, “radioactivity. The filters were counted in a scintillation counter (Betaplate 1205, Berthold, Wildbad, Germany) in order to determine the specific binding of [^3H]-Dofetilide.” for “radioactivity.”
The optimal amount of membrane preparation in the assay was determined and optimized for each membrane preparation separately in front of using the membranes in compound testing.
For pipetting of the incubation mixture we routinely use the robot Biomek2000 (Fa. Beckman).

rat NR1/NR2B receptor [2] = molecular target: T1, rat NR1/NR2B receptor; assay: NR2B binding assay: inhibition of specific [3H]-Ifenprodil binding to the rat NR1/NR2B receptor; details: rat brain membranes, Hill-plot 2-parameter-model
Description: Inhibition of Specific Binding to the Rat NR1/NR2B Receptor
as §1
Membrane fractions were prepared and tested using standard techniques. At the time of the assay, 1 g of the brains was placed into 25 ml of 50 mM Tris/10 mM EDTA buffer, pH 7.1, (25 vol. per g of original tissue) and homogenized for 30 sec at 20000 rpm with an Ultraturrax T25 (Jahnke & Kunkel, IKA-Labortechnik, Staufen, Germany). The homogenate was centrifuged at 4° C. for 10 min at 48000 g (OPTIMA L-70, Beckman, Palo Alto, Calif. 94304, USA).
The supernatant was discarded and the pellet was homogenized on ice for 30 sec at 20000 rpm with an Ultraturrax and again centrifuged at 48000 g for 30 minutes at 4° C. The resulted pellet was resuspended in 25 ml of 50 mM Tris/10 mM EDTA buffer, homogenized for 30 sec with an Ultraturrax, aliquoted, frozen at −70° C. and stored until use.
as §2, with “aliquot” for “aliquote”, “pH 7.4,” for “pH=7.4,”, “rpm” for “U/min”, “This” for “This step”, “Tris/l mM” for “Tris/mM”, “assay as described in the following.” for “assay.”
Nonspecific binding was estimated in the presence of […] CP101.606. The samples were incubated for 60 min. at 4° C.
as §3, with “The incubation” for “Binding”, “the” for “the incubated”, “polyethylene imine” for “polyethylenimine”, “mM” for “nM”, “pH 7.7” for “pH=7.7”
The optimal amount of membrane preparation in the assay had been determined and optimized for each membrane preparation separately before the test.
For pipetting of the incubation mixture we routinely used the robot Biomek2000 (Fa. Beckman).
For determination of IC50 values the Hill-plot, 2-parameter-model was used.

Chain of hERG-receptor (Q12809 whole entry): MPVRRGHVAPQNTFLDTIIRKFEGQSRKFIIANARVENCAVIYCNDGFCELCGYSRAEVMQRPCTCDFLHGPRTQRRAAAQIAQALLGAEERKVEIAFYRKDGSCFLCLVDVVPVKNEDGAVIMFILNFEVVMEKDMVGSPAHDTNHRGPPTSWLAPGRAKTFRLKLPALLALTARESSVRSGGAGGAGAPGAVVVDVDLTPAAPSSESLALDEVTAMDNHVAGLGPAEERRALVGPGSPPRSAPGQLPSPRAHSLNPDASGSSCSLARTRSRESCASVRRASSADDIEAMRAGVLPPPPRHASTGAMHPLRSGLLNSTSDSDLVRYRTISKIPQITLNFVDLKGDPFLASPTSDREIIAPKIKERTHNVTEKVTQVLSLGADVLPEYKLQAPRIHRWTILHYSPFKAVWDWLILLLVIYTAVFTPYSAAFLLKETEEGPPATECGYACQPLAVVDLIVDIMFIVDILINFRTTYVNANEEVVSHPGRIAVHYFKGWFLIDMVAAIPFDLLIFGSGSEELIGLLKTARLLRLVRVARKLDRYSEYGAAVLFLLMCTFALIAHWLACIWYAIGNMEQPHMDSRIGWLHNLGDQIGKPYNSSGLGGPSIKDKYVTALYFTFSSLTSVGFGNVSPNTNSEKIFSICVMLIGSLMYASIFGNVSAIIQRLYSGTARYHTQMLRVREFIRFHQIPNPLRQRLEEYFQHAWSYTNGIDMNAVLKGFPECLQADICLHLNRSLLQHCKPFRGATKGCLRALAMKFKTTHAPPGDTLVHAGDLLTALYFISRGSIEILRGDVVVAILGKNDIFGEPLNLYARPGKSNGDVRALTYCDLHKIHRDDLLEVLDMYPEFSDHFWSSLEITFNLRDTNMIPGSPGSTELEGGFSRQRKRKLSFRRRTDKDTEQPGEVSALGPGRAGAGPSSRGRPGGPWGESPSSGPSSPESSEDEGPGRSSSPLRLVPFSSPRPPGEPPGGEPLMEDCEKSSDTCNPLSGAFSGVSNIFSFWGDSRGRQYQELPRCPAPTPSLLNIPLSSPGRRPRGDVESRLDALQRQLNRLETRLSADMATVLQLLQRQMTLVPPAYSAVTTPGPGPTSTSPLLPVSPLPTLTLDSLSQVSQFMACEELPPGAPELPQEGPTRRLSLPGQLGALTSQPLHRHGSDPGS
T1 sequence (Q00960 27-1482, other chains not shown): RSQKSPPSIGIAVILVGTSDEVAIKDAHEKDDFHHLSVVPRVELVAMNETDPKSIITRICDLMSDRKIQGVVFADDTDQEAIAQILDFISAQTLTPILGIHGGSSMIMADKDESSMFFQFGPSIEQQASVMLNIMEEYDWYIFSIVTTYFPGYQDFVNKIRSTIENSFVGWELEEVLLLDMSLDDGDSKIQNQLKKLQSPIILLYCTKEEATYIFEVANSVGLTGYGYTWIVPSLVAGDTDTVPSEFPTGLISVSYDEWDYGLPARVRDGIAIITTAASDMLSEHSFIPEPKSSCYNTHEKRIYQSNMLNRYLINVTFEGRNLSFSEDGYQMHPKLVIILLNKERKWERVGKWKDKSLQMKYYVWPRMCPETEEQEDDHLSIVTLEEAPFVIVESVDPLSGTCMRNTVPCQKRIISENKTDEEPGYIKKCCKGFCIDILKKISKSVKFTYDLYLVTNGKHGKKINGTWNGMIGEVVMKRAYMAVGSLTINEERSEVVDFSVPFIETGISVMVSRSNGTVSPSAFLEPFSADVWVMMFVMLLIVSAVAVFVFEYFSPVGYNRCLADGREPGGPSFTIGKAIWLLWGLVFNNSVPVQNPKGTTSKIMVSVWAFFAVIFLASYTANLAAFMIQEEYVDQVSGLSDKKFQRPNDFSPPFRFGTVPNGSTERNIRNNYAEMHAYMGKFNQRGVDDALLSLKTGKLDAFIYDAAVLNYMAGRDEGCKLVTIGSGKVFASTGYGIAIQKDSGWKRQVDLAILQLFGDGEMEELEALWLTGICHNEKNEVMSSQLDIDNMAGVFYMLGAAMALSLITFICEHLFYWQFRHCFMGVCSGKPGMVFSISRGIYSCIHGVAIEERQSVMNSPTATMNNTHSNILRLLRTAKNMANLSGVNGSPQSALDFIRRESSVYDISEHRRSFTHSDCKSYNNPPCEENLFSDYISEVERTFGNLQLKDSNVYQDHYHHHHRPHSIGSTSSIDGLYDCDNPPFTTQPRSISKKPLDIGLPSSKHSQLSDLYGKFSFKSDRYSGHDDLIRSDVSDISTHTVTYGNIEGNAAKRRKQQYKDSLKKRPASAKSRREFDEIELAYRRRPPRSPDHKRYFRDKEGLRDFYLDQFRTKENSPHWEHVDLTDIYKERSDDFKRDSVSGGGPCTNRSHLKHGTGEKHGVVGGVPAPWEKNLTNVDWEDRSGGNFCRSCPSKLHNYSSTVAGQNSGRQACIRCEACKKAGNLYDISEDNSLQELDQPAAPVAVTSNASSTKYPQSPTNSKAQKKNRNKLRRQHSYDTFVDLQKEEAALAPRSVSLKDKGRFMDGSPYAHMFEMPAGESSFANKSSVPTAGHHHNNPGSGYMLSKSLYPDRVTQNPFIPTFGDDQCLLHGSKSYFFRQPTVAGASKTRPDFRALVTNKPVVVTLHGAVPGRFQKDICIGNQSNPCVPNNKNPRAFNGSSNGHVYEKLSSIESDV

Row | SMILES | IC50 (rat NR1/NR2B receptor [1]) [µM] | IC50 (hERG-receptor) [µM] | IC50 (rat NR1/NR2B receptor [2]) [µM]
1 | CCCCc1nccn1Cc1cn(-c2ccc(F)c(Cl)c2)nn1 [Example 45, 4-(2-Butyl-imidazol-1-ylmethyl)-1-(3-chloro-4-fluoro-phenyl)-1H-[1,2,3]triazole] | 0.00768 | 0.539 | 0.00768
2 | Cc1nccn1Cc1cn(-c2ccc(Cl)cc2Cl)nn1 [Example 49, 1-(2,4-Dichloro-phenyl)-4-(2-methyl-imidazol-1-ylmethyl)-1H-[1,2,3]triazole] | 0.778 | 4.53 | 0.778
3 | Cc1nccn1Cc1cn(-c2ccc(Cl)c(F)c2)nn1 [Example 50, 1-(4-Chloro-3-fluoro-phenyl)-4-(2-methyl-imidazol-1-ylmethyl)-1H-[1,2,3]triazole] | 0.0212 | 3.39 | 0.0212
4 | Cc1nccn1Cc1cn(-c2ccc(F)c(Cl)c2)nn1 [Example 51, 1-(3-Chloro-4-fluoro-phenyl)-4-(2-methyl-imidazol-1-ylmethyl)-1H-[1,2,3]triazole] | 0.00701 | 4.97 | 0.00701
5 | COc1cc(F)ccc1-n1cc(Cn2ccnc2C)nn1 [Example 52, 1-(4-Fluoro-2-methoxy-phenyl)-4-(2-methyl-imidazol-1-ylmethyl)-1H-[1,2,3]triazole] | 1.18 | 41.7 | 1.18
6 | Cc1ccc(-n2cc(Cn3ccnc3C)nn2)cc1F [Example 53, 1-(3-Fluoro-4-methyl-phenyl)-4-(2-methyl-imidazol-1-ylmethyl)-1H-[1,2,3]triazole] | 0.0265 | 6.41 | 0.0265
7 | Cc1cc(-n2cc(Cn3ccnc3C)nn2)ccc1F [Example 54, 1-(4-Fluoro-3-methyl-phenyl)-4-(2-methyl-imidazol-1-ylmethyl)-1H-[1,2,3]triazole] | 0.00532 | 6.21 | 0.00532
8 | Cc1cc(-n2cc(Cn3ccnc3C)nn2)ccc1Cl [Example 55, 1-(4-Chloro-3-methyl-phenyl)-4-(2-methyl-imidazol-1-ylmethyl)-1H-[1,2,3]triazole] | 0.00164 | 4.71 | 0.00164
9 | Cc1nccn1Cc1cn(-c2ccc(Cl)c(C(F)(F)F)c2)nn1 [Example 56, 1-(4-Chloro-3-trifluoromethyl-phenyl)-4-(2-methyl-imidazol-1-ylmethyl)-1H-[1,2,3]triazole] | 0.0119 | 6.46 | 0.0119
10 | Cc1nccn1Cc1cn(-c2cccc(OC(F)(F)F)c2)nn1 [Example 57, 4-(2-Methyl-imidazol-1-ylmethyl)-1-(3-trifluoromethoxy-phenyl)-1H-[1,2,3]triazole] | 0.00721 | 8.59 | 0.00721
11 | Cc1nccn1Cc1cn(-c2cccc(C(F)(F)F)c2)nn1 [Example 58, 4-(2-Methyl-imidazol-1-ylmethyl)-1-(3-trifluoromethyl-phenyl)-1H-[1,2,3]triazole] | 0.0174 | 15 | 0.0174
12 | Cc1nccn1Cc1cn(-c2ccc(C(F)(F)F)cc2)nn1 [Example 59, 4-(2-Methyl-imidazol-1-ylmethyl)-1-(4-trifluoromethyl-phenyl)-1H-[1,2,3]triazole] | 0.046 | 6.27 | 0.046
13 | COc1cc(F)ccc1-n1cc(Cn2ccnc2C2CC2)nn1 [Example 62, 4-(2-Cyclopropyl-imidazol-1-ylmethyl)-1-(4-fluoro-2-methoxy-phenyl)-1H-[1,2,3]triazole] | 3.32 | 45.9 | 3.32
14 | Cc1ccc(-n2cc(Cn3ccnc3C3CC3)nn2)cc1F [Example 63, 4-(2-Cyclopropyl-imidazol-1-ylmethyl)-1-(3-fluoro-4-methyl-phenyl)-1H-[1,2,3]triazole] | 0.0871 | 11.2 | 0.0871
15 | FC(F)(F)c1cc(-n2cc(Cn3ccnc3C3CC3)nn2)ccc1Cl [Example 66, 1-(4-Chloro-3-trifluoromethyl-phenyl)-4-(2-cyclopropyl-imidazol-1-ylmethyl)-1H-[1,2,3]triazole] | 0.038 | 3.54 | 0.038
16 | FC(F)(F)Oc1cccc(-n2cc(Cn3ccnc3C3CC3)nn2)c1 [Example 67, 4-(2-Cyclopropyl-imidazol-1-ylmethyl)-1-(3-trifluoromethoxy-phenyl)-1H-[1,2,3]triazole] | 0.0345 | 2.55 | 0.0345
17 | FC(F)(F)c1cccc(-n2cc(Cn3ccnc3C3CC3)nn2)c1 [Example 68, 4-(2-Cyclopropyl-imidazol-1-ylmethyl)-1-(3-trifluoromethyl-phenyl)-1H-[1,2,3]triazole] | 0.0916 | 5.12 | 0.0916
18 | FC(F)(F)c1ccc(-n2cc(Cn3ccnc3C3CC3)nn2)cc1 [Example 69, 4-(2-Cyclopropyl-imidazol-1-ylmethyl)-1-(4-trifluoromethyl-phenyl)-1H-[1,2,3]triazole] | 0.173 | 4.41 | 0.173
19 | CCc1nccn1Cc1cn(-c2ccc(Cl)c(C)c2)nn1 [Example 70, 1-(4-Chloro-3-methyl-phenyl)-4-(2-ethyl-imidazol-1-ylmethyl)-1H-[1,2,3]triazole] | 0.00184 | 3.92 | 0.00184

From US9981950B2, “Triazoles as NR2B receptor inhibitors” (Janssen Pharmaceuticals, Inc., priority 2014, dated 2018)
